Test results published in patent US20220202739A1, “ENDOCANNABINOID MIMETIC AND ANTI-INFLAMMATORY COMPOUND CONTAINING COMPOSITIONS, METHODS OF PREPARATION AND USES THEREOF” (priority 2019, published 2022).

What was measured:
PTGS1 = assay: Gene expression custom microarray, human skin keratinocytes (Example 2): PTGS1; format: cell-based; conditions: 10 uM, 24 hr
Experimental: (§1) Cell cultures: A human skin keratinocyte cell culture (or cultures) is obtained through the ThermoFisher Scientific (Waltham, Mass.) or Promocell GmbH (Heidelberg, Germany). The initial culture was selected from one of the following, C055C, 3C0647, or
(§2) C12003. The cell lines were derived from donors as follows: C055C: Single donor adult 3C0647: Single donor adult, lightly pigmented C12003: Single donor adult
(§3) Culture media: Cells were grown in ready to use Keratinocyte Growth Medium 2 from Promocell GmbH (Heidelberg, Germany) containing basal media supplemented with Bovine Pituitary Extract 0.004 ml/ml, Epidermal Growth Factor (recombinant human) 0.125 ng/ml, Insulin (recombinant human) 5 μg/ml, Hydrocortisone 0.33 μg/ml, Epinephrine 0.39 μg/ml, Transferrin (recombinant human) 10 μg/ml, and CaCl2 0.06 mM. […] All cultures were incubated at 37° C. with 5% CO2 in a humidified chamber.
(§4) Experimental phase: The experimental phase was carried out in accordance with the protocol set forth in the experimental phase section of Example 1.
(§5) The genes tested: Tested genes were the same as tested in Example 1.
(§6) Performance of custom microarray: Performance of custom microarray was carried out in accordance with the protocol set forth in the performance of custom microarray section of Example 1. […]

MAGL = assay: Gene expression custom microarray, human skin keratinocytes (Example 2): MAGL; format: cell-based; conditions: 10 uM, 24 hr
Experimental: as §1, §2, §3, §4, §5, §6

FAAH = assay: Gene expression custom microarray, human skin keratinocytes (Example 2): FAAH; format: cell-based; conditions: 10 uM, 24 hr
Experimental: as §1, §2, §3, §4, §5, §6

IL1A = assay: Gene expression custom microarray, human skin keratinocytes (Example 2): IL1A; format: cell-based; conditions: 10 uM, 24 hr
Experimental: as §1, §2, §3, §4, §5, §6

TRPA1 = assay: Gene expression custom microarray, human skin keratinocytes (Example 2): TRPA1; format: cell-based; conditions: 10 uM, 24 hr
Experimental: as §1, §2, §3, §4, §5, §6

CNR1 = conditions: human skin keratinocytes, 10 uM, 24 hr
Experimental: as §1, §2, §3, §4, §5, §6

CNR2 = conditions: human skin keratinocytes, 10 uM, 24 hr
Experimental: as §1, §2, §3, §4, §5, §6

NFKB1 = assay: Gene expression custom microarray, human skin keratinocytes (Example 2): NFKB1; format: cell-based; conditions: 10 uM, 24 hr
Experimental: as §1, §2, §3, §4, §5, §6

TRPV1 [1] = assay: Gene expression custom microarray, human skin keratinocytes (Example 2): TRPV1; format: cell-based; conditions: 10 uM, 24 hr
Experimental: as §1, §2, §3, §4, §5, §6

PPARG = assay: Gene expression custom microarray, human skin keratinocytes (Example 2): PPARG; format: cell-based; conditions: 10 uM, 24 hr
Experimental: as §1, §2, §3, §4, §5, §6

TRPM8 = assay: Gene expression custom microarray, human skin keratinocytes (Example 2): TRPM8; format: cell-based; conditions: 10 uM, 24 hr
Experimental: as §1, §2, §3, §4, §5, §6

TRPV1 [2] = assay: Gene expression custom microarray, human skin fibroblasts (Example 1): TRPV1; format: cell-based; conditions: 10 uM, 24 hr
Source text: Cell cultures: A human skin fibroblast cell culture (or cultures) was obtained through the Coriell Cell Repository from the National Institute on Aging Cell Repository (Camden, N.J.), or Promocell GmbH (Heidelberg, Germany). The initial culture was selected from the following cell lines: AG13066, AG11557, AG11796 or GM03651E. The cell lines were derived from donors as follows:
Experimental phase: When the appropriate quantity of cells had been grown, they were detached as described above, but at the final step were seeded into each well of one or more 6 well dishes. Each well received 2 ml of the cell suspension so they were seeded equally. The dishes were returned to the incubator until 85-95% confluency was reached.
It is at this stage that all wells were rinsed in PBS after aspirating the growth media. The compound(s) to be tested were previously mixed into a suitable solvent (e.g., DMSO or ethanol) that can be diluted to the desired concentration of test compound (10 μl) in the culture wells without exceeding maximum solvent concentrations and adversely effecting cell viability, and mixed with basal media. NOTE: Standard maximum levels of solvent are 0.1% for DMSO and 0.5% for ETOH. The concentration of each test compound is found in Tables 1 & 2.
Every 2 wells on the 6 well plate served as a biological replicate for the purposes of RNA isolation and genetic expression evaluations making each 6 well dish an n=3 for the test compound(s) contained in the media. Negative control plates (no test compound(s) and only basal media) were also generated. The plates were returned to the incubator for 24 hrs.
At the end of the 24 hr time period, the plates were removed from the incubator, the test media aspirated, and the cells rinsed with PBS. RNA isolation is performed using the BioRad Aurum Total RNA Mini Kit (Hercules, Calif.) per manufacturer's protocol; which is described, in brief, below: • Add 350 μl of lysis buffer to each well. Pipet multiple times to ensure thorough lysis. Add lysed cells to the collection tube. • Add 350 μl of 70% ETOH to the collection tube and mix thoroughly. • Pipet the generated lysate onto the spin column placed in a new 2 ml tube. Centrifuge for 30 sec between 8,000 and 10,000 g. • Place the spin column containing the now bound RNA, in a new 2 ml tube. Add 700 μl of low stringency wash solution to the spin column. Centrifuge for 30 sec between 8,000 and 10,000 g. […] Allow 1 minute for saturation of the membrane and then centrifuge for 2 minutes to complete the RNA elution. • Quantify the quantity of RNA and store at −20 C° until use (no more than 1 month) […]

| SMILES | PTGS1↓ gene expression, fold increase or decrease vs untreated cells (PTGS1) [fold] | MAGL↓ gene expression, fold increase or decrease vs untreated cells (MAGL) [fold] | FAAH↓ gene expression, fold increase or decrease vs untreated cells (FAAH) [fold] | IL1A↓ gene expression, fold increase or decrease vs untreated cells (IL1A) [fold] | TRPA1↑ gene expression, fold increase or decrease vs untreated cells (TRPA1) [fold] | CNR1↑ gene expression, fold increase or decrease vs untreated cells (CNR1) [fold] | CNR2↑ gene expression, fold increase or decrease vs untreated cells (CNR2) [fold] | NFKB1↓ gene expression, fold increase or decrease vs untreated cells (NFKB1) [fold] | TRPV1↑ gene expression, fold increase or decrease vs untreated cells (TRPV1 [1]) [fold] | PPARG↑ gene expression, fold increase or decrease vs untreated cells (PPARG) [fold] | TRPM8↑ gene expression, fold increase or decrease vs untreated cells (TRPM8) [fold] | TRPV1↑ gene expression, fold increase or decrease vs untreated cells (TRPV1 [2]) [fold] |
| --- | --- | --- | --- | --- | --- | --- | --- | --- | --- | --- | --- | --- |
| C=C(C)[C@@H]1CCC(C)=C[C@H]1c1c(O)cc(CCCCC)cc1O [CBD, cannabidiol, reference compound] | 2.3 | −2.3 | −3.1 | −1.8 | −1.7 | 2.6 | 0 | −1.3 | 2.2 | −4.7 | 2.5 | – |
| CCCCCCCCCCCCCCCC(=O)NCCO [N-palmitoylethanolamide] | – | – | – | – | – | – | – | – | – | – | – | −3.2 |
